# From patent US10550105B2 (Ribon Therapeutics Inc., priority 2018, dated 2020)
# What was measured:
# interferon-beta (IFN-β) = assay: Induction of interferon-beta levels in CT26 cells in the presence of STING agonist DMXAA (FIG. 3); type: cell-based; settings: CT26 mouse colon cancer cells
# [1] = system: NCI-H1373 lung cancer cells; assay: Inhibition of cancer cell growth in NCI-H1373 lung cancer cells (FIG. 2); type: cell-based, human
# [2] = system: NCI-H1373 lung cancer xenograft; assay: Inhibition of tumor growth by oral dosing, human NCI-H1373 lung cancer xenograft; type: in vivo; settings: NCI-H1373 xenograft in SCID mice
# Excerpt: Example H: Inhibition of Tumor Growth by Oral Dosing with a PARP7 Inhibitor
# The effect of Compound 561 on tumor growth was studied in a human NCI-H1373 lung cancer xenograft and a murine CT26 colon cancer syngeneic model.
# For the NCI-H1373 study, SCID mice were inoculated subcutaneously in the right flank with NCI-H1373 cells for tumor development. After 5 days of tumor growth, mice with 89-148 mm^3 tumors were randomized into treatment groups with mean tumor volumes of 121 mm^3. The treatments were started from the next day post randomization (defined randomization day as day 0) and were treated with vehicle (50% Labrasol) or Compound 561 (62.5, 125, 250, and 500 mg/kg) once a day for 28 days by oral gavage. Tumor volumes were determined by manual calipers every 2-3 days. Mean tumor volume and SEM are plotted. QD: once a day; PO: per oral administration. Statistical significance is calculated using two-way ANOVA followed by Bonferroni post-tests in which the treatment groups were compared to vehicle control (**** P<0.0001).
# [3] = system: CT26 colon cancer syngeneic model; assay: Tumor growth in the murine syngeneic model CT26 (FIG. 6A-C, 7B); type: in vivo, mouse; settings: once or twice daily administration, FIG. 7B
# [4] = system: human NCI-H1373 lung cancer xenograft; assay: Tumor growth in human NCI-H1373 lung cancer xenograft (FIG. 7A); type: in vivo; settings: once daily administration
# NCI-H2347 = assay: Growth inhibition of cancer cell lines, 144 hours (CellTiter-Glo); type: cell-based; settings: Homo sapiens, lung adenocarcinoma
# Protocol: (§1) Example C: Inhibition of Cancer Cell Growth by Treatment with PARP7 Inhibitors
# (§2) Table A-2 and Table A-3 (below) represents the concentration that causes 50% growth inhibition (GI50) in a panel of cancer cell lines with Compound 18B and Compound 561. Cells were plated into 384-well plates at a pre-specified density in fetal bovine serum-containing media. Cells were treated with compound or vehicle (DMSO) 24 hrs later, and a day zero plate was collected for analysis. Test compound plates were incubated continuously for 72 hrs (Table A-2) or 144 hours (Table A-3) cell growth was assessed using a luminescent cell viability assay (CellTiter-Glo, Promega). The GI50was determined by correcting for the cell count at time zero (time of treatment) and plotting data as percent growth relative to vehicle-treated cells.
# TE-11 = assay: as above; type: cell-based; settings: Homo sapiens, esophageal squamous cell carcinoma
# Protocol: as §1, §2
# HT-1080 = assay: as above; type: cell-based; settings: Homo sapiens, fibrosarcoma
# Protocol: as §1, §2
# KMRC-3 = assay: as above; type: cell-based; settings: clear cell renal carcinoma
# Protocol: as §1, §2
# SK-LU-1 = assay: as above; type: cell-based; settings: Homo sapiens, lung adenocarcinoma
# Protocol: as §1, §2
# NCI-H2291 = assay: as above; type: cell-based; settings: Homo sapiens, lung adenocarcinoma
# Protocol: as §1, §2
# T84 = assay: as above; type: cell-based; settings: Homo sapiens, colon adenocarcinoma
# Protocol: as §1, §2
# NUGC-3 = assay: as above; type: cell-based; settings: Homo sapiens, gastric adenocarcinoma
# Protocol: as §1, §2
# HCC1954 = assay: as above; type: cell-based; settings: Homo sapiens, ductal breast carcinoma
# Protocol: as §1, §2
# MCAS = assay: as above; type: cell-based; settings: ovarian mucinous cystadenocarcinoma
# Protocol: as §1, §2
# YD-10B = assay: as above; type: cell-based; settings: tongue squamous cell carcinoma
# Protocol: as §1, §2
# COR-L105 = assay: as above; type: cell-based; settings: Homo sapiens, lung adenocarcinoma
# Protocol: as §1, §2
# TYK-nu = assay: as above; type: cell-based; settings: high grade ovarian serious adenocarcinoma
# Protocol: as §1, §2
# NCI-H1930 = assay: as above; type: cell-based; settings: Homo sapiens, small cell lung carcinoma
# Protocol: as §1, §2
# NCI-H1963 = assay: as above; type: cell-based; settings: Homo sapiens, small cell lung carcinoma
# Protocol: as §1, §2
# CFPAC-1 = assay: as above; type: cell-based; settings: Homo sapiens, pancreatic ductal adenocarcinoma
# Protocol: as §1, §2
# CAL-27 = assay: as above; type: cell-based; settings: Homo sapiens, tongue squamous cell carcinoma
# Protocol: as §1, §2
# AGS = assay: as above; type: cell-based; settings: Homo sapiens, gastric adenocarcinoma
# Protocol: as §1, §2
# NCI-H2087 = assay: as above; type: cell-based; settings: Homo sapiens, lung adenocarcinoma
# Protocol: as §1, §2
# SCC-25 = assay: as above; type: cell-based; settings: Homo sapiens, tongue squamous cell carcinoma
# Protocol: as §1, §2
# NCI-H2444 = assay: as above; type: cell-based; settings: Homo sapiens, non-small cell lung carcinoma
# Protocol: as §1, §2
# NCI-H441 = assay: as above; type: cell-based; settings: Homo sapiens, papillary adenocarcinoma of the lung
# Protocol: as §1, §2
# IA-LM = assay: as above; type: cell-based; settings: large cell lung carcinoma
# Protocol: as §1, §2
# A101D = assay: as above; type: cell-based; settings: Homo sapiens, melanoma
# Protocol: as §1, §2
# SF126 = assay: as above; type: cell-based; settings: Homo sapiens, SF-126, glioblastoma multiforme
# Protocol: as §1, §2
# KMBC-2 = assay: as above; type: cell-based; settings: bladder carcinoma
# Protocol: as §1, §2
# MSTO-211H = assay: as above; type: cell-based; settings: Homo sapiens, biphasic mesothelioma
# Protocol: as §1, §2
# Caki-1 = assay: as above; type: cell-based; settings: Homo sapiens, clear cell renal cell carcinoma
# Protocol: as §1, §2
# SNU-840 = assay: as above; type: cell-based; settings: malignant ovarian Brenner tumor
# Protocol: as §1, §2
# ACC-MESO-1 = assay: as above; type: cell-based; settings: mesothelioma
# Protocol: as §1, §2
# HPAF-II = assay: as above; type: cell-based; settings: Homo sapiens, pancreatic adenocarcinoma
# Protocol: as §1, §2
smiles,measurement,setting,value
"N#Cc1ccc(N2CCN(C(=O)c3cccc(OC[C@@H]4c5ccccc5CN4c4cn[nH]c(=O)c4C(F)(F)F)c3)CC2)nc1 (single isomer, unassigned) [Example 18 Isomer B]",interferon-beta (IFN-β) levels,interferon-beta (IFN-β),induction
same,growth of NCI-H1373 lung cancer cells,[1],dose-dependent decrease in growth
"C[C@@H](COCCC(=O)N1CCN(c2ncc(C(F)(F)F)cn2)CC1)Nc1cn[nH]c(=O)c1C(F)(F)F [Example 561, 5-[[(2S)-1-(3-oxo-3-[4-[5-(trifluoromethyl)pyrimidin-2-yl]piperazin-1-yl]propoxy)propan-2-yl]amino]-4-(trifluoromethyl)-2,3-dihydropyridazin-3-one]",tumor growth,"[2]; 62.5, 125, 250 and 500 mg/kg once a day for 28 days by oral gavage, vs vehicle, P<0.0001 (FIG. 7A)",significantly reduces tumor growth
same,tumor regression,"[2]; 62.5 to 500 mg/kg once a day for 28 days, all dose levels",complete tumor regression
same,tumor growth,[3],significantly reduces tumor growth
same,tumor growth,[4],significantly reduces tumor growth
same,GI50,NCI-H2347,< 100 nM
same,GI50,TE-11,≥ 1000 nM
same,GI50,HT-1080,≥ 1000 nM
same,GI50,KMRC-3,≥ 1000 nM
same,GI50,SK-LU-1,≥ 1000 nM
same,GI50,NCI-H2291,≥ 1000 nM
same,GI50,T84,≥ 1000 nM
same,GI50,NUGC-3,≥ 1000 nM
same,GI50,HCC1954,≥ 1000 nM
same,GI50,MCAS,≥ 1000 nM
same,GI50,YD-10B,≥ 1000 nM
same,GI50,COR-L105,100 to 1000 nM
same,GI50,TYK-nu,< 100 nM
same,GI50,NCI-H1930,≥ 1000 nM
same,GI50,NCI-H1963,≥ 1000 nM
same,GI50,CFPAC-1,100 to 1000 nM
same,GI50,CAL-27,≥ 1000 nM
same,GI50,AGS,≥ 1000 nM
same,GI50,NCI-H2087,≥ 1000 nM
same,GI50,SCC-25,< 100 nM
same,GI50,NCI-H2444,≥ 1000 nM
same,GI50,NCI-H441,≥ 1000 nM
same,GI50,IA-LM,< 100 nM
same,GI50,A101D,≥ 1000 nM
same,GI50,SF126,≥ 1000 nM
same,GI50,KMBC-2,≥ 1000 nM
same,GI50,MSTO-211H,≥ 1000 nM
same,GI50,Caki-1,< 100 nM
same,GI50,SNU-840,≥ 1000 nM
same,GI50,ACC-MESO-1,≥ 1000 nM
same,GI50,HPAF-II,≥ 1000 nM
